The target of the assay is soluble HLA-A*02:01 molecules (Homo sapiens, UniProt P04439, D140Y/D185E/D98H/E176V/E277Q/G131W/G231S/I119V/I121R/I166T/I218V/L300P/L318F/N151K/N90K/P208A/P217A/Q86G/Q94H/R138H/R169H/T345S). In words: Binding with soluble HLA-A*02:01 molecules.

Experimental findings from PMC4057607 (Journal of immunology (Baltimore, Md. : 1950), 2013) are described below.

What is called Kd is the equilibrium constant for the complex coming apart.

For `CSCC[C@H](NC(=O)[C@@H](N)[C@@H](C)O)C(=O)N[C@@H](CC(C)C)C(=O)N[C@@H](CCC(=O)O)C(=O)N[C@@H](CC(=O)O)C(=O)N[C@@H](Cc1c[nH]cn1)C(=O)N[C@@H](CCC(=O)O)C(=O)N[C@@H](Cc1ccccc1)C(=O)N[C@H](C(=O)O)C(C)C` [gB675–683], the Kd was approximately 95 nM.
